In brackets after ≈: the same amount, converted by molar mass. Where a SMILES comes first, the peptide text is derived from it. Bridges are numbered along the chain shown (N, C = ends).
Test system: S. simulans 22
Test: MIC assays under standard conditions
Assay type: cell-based, Staphylococcus simulans
Conditions: for Minimum inhibitory concentration, S. simulans: Supplementary Table 1, 16–20 h
Description: Plectasin and analogues were serially diluted in cation-adjusted Mueller–Hinton broth (MHB) in round-bottom polypropylene 96-well plates (50 µl per well). Selected bacterial strains were grown from glycerol stocks on blood agar plates. Individual colonies were inoculated in TSB and incubated at 37 °C while shaking until OD600 reached 0.5. Bacterial suspensions were then diluted 100 times in cation-adjusted MHB and distributed (50 μl per well) over the microplate containing the diluted plectasin solutions. Plates were covered by a gas-permeable adhesive membrane and incubated at 37 °C while shaking. MICs were determined by visual inspection after 16–20 h (Staphylococcus) or 20–24 h (Streptococcus). For Streptococcus strains, the broth was additionally supplemented with 5% lysed horse blood, and the microplates were incubated under 5% CO2 atmosphere. In the assays, we used the following strains: S. simulans, S. pneumoniae serotype 8, S. pneumoniae ATCC6305 and Streptococcus pyogenes M3.

| SMILES | Minimum inhibitory concentration, S. simulans (cation-adjusted MHB, 37 °C) | reduction in activity vs plectasin (from MIC of Table 1) | MIC (standard conditions, cation-adjusted MHB, 37 °C, visual inspection after 16–20 h) |
| --- | --- | --- | --- |
| CSCC[C@@H]1NC(=O)[C@H](CC(=O)O)NC(=O)[C@H](CC(=O)O)NC(=O)[C@H](CCC(=O)O)NC(=O)[C@H](CC(=O)O)NC(=O)[C@H](Cc2c[nH]c3ccccc23)NC(=O)[C@@H]2CCCN2C(=O)CNC(=O)[C@H](CC(N)=O)NC(=O)[C@@H](NC(=O)CNC(=O)[C@H](Cc2ccccc2)NC(=O)CN)CSSC[C@@H]2NC(=O)[C@H](Cc3ccc(O)cc3)NC(=O)CNC(=O)CNC(=O)[C@H](CCCCN)NC(=O)[C@H](Cc3ccc(O)cc3)NC(=O)CNC(=O)[C@H](CCCCN)NC(=O)[C@H](C(C)C)NC(=O)[C@H](CO)NC(=O)[C@H](CCCCN)NC(=O)[C@@H]3CSSC[C@@H](C(=O)N[C@@H](Cc4ccc(O)cc4)C(=O)O)NC(=O)[C@H](CCCCN)NC(=O)[C@H](CSSC[C@H](NC(=O)[C@H](CCC(N)=O)NC1=O)C(=O)N[C@@H](Cc1c[nH]cn1)C(=O)N[C@@H](CC(N)=O)C(=O)N[C@@H](Cc1c[nH]cn1)C(=O)N3)NC(=O)[C@H](C(C)C)NC(=O)[C@H](Cc1ccccc1)NC(=O)CNC(=O)CNC(=O)[C@H](CCCCN)NC(=O)[C@H](C)NC2=O [I22V] (H-GFGCNGPWDEDDMQCHNHCKSVKGYKGGYCAKGGFVCKCY-OH; disulfide 4-30, 15-37, 19-39 (inferred); N-terminus and C-terminus assumed) | 1,56 μg/mL |  |  |
| CC[C@H](C)[C@@H]1NC(=O)[C@H](CO)NC(=O)[C@H](CCCCN)NC(=O)[C@@H]2CSSC[C@@H](C(=O)N[C@@H](Cc3ccc(O)cc3)C(=O)O)NC(=O)[C@H](CCCCN)NC(=O)[C@@H]3CSSC[C@H](NC(=O)[C@H](CCC(N)=O)NC(=O)[C@H](CCSC)NC(=O)[C@H](CC(=O)O)NC(=O)[C@H](CC(=O)O)NC(=O)[C@H](CCC(=O)O)NC(=O)[C@H](CC(=O)O)NC(=O)[C@H](Cc4c[nH]c5ccccc45)NC(=O)[C@@H]4CCCN4C(=O)CNC(=O)[C@H](CC(N)=O)NC(=O)[C@@H](NC(=O)CNC(=O)[C@H](Cc4ccccc4)NC(=O)CN)CSSC[C@H](NC(=O)[C@H](Cc4ccc(O)cc4)NC(=O)CNC(=O)CNC(=O)[C@H](CCCCN)NC(=O)[C@H](Cc4c[nH]cn4)NC(=O)CNC(=O)[C@H](CCCCN)NC1=O)C(=O)N[C@@H](C)C(=O)N[C@@H](CCCCN)C(=O)NCC(=O)NCC(=O)N[C@@H](Cc1ccccc1)C(=O)N[C@@H](C(C)C)C(=O)N3)C(=O)N[C@@H](Cc1c[nH]cn1)C(=O)N[C@@H](CC(N)=O)C(=O)N[C@@H](Cc1c[nH]cn1)C(=O)N2 [Y25H] (H-GFGCNGPWDEDDMQCHNHCKSIKGHKGGYCAKGGFVCKCY-OH; disulfide 4-30, 15-37, 19-39 (inferred); N-terminus and C-terminus assumed) | ≤ 0.78 µg/mL |  |  |
| CSCC[C@@H]1NC(=O)[C@H](CC(=O)O)NC(=O)[C@H](CC(=O)O)NC(=O)[C@H](CCC(=O)O)NC(=O)[C@H](CC(=O)O)NC(=O)[C@H](Cc2c[nH]c3ccccc23)NC(=O)[C@@H]2CCCN2C(=O)CNC(=O)[C@H](CC(N)=O)NC(=O)[C@@H](NC(=O)CNC(=O)[C@H](Cc2ccccc2)NC(=O)CN)CSSC[C@@H]2NC(=O)[C@H](Cc3ccc(O)cc3)NC(=O)CNC(=O)CNC(=O)[C@H](CCCCN)NC(=O)[C@H](Cc3ccc(O)cc3)NC(=O)CNC(=O)[C@H](CCCCN)NC(=O)[C@H](CC(=O)O)NC(=O)[C@H](CO)NC(=O)[C@H](CCCCN)NC(=O)[C@@H]3CSSC[C@@H](C(=O)N[C@@H](Cc4ccc(O)cc4)C(=O)O)NC(=O)[C@H](CCCCN)NC(=O)[C@H](CSSC[C@H](NC(=O)[C@H](CCC(N)=O)NC1=O)C(=O)N[C@@H](Cc1c[nH]cn1)C(=O)N[C@@H](CC(N)=O)C(=O)N[C@@H](Cc1c[nH]cn1)C(=O)N3)NC(=O)[C@H](C(C)C)NC(=O)[C@H](Cc1ccccc1)NC(=O)CNC(=O)CNC(=O)[C@H](CCCCN)NC(=O)[C@H](C)NC2=O [I22D] (H-GFGCNGPWDEDDMQCHNHCKSDKGYKGGYCAKGGFVCKCY-OH; disulfide 4-30, 15-37, 19-39 (inferred); N-terminus and C-terminus assumed) | > 50 µg/mL |  |  |
| CC[C@H](C)[C@@H]1NC(=O)[C@H](CO)NC(=O)[C@H](CCCCN)NC(=O)[C@@H]2CSSC[C@@H](C(=O)N[C@@H](Cc3ccc(O)cc3)C(=O)O)NC(=O)[C@H](CCCCN)NC(=O)[C@@H]3CSSC[C@H](NC(=O)[C@H](CCC(N)=O)NC(=O)[C@H](CCSC)NC(=O)[C@H](CC(=O)O)NC(=O)[C@H](CC(=O)O)NC(=O)[C@H](CCC(=O)O)NC(=O)[C@H](CC(=O)O)NC(=O)[C@H](Cc4c[nH]c5ccccc45)NC(=O)[C@@H]4CCCN4C(=O)CNC(=O)[C@H](CC(N)=O)NC(=O)[C@@H](NC(=O)CNC(=O)[C@H](Cc4ccccc4)NC(=O)CN)CSSC[C@H](NC(=O)[C@H](Cc4ccc(O)cc4)NC(=O)CNC(=O)CNC(=O)[C@H](CCCCN)NC(=O)[C@H](CC(C)C)NC(=O)CNC(=O)[C@H](CCCCN)NC1=O)C(=O)N[C@@H](C)C(=O)N[C@@H](CCCCN)C(=O)NCC(=O)NCC(=O)N[C@@H](Cc1ccccc1)C(=O)N[C@@H](C(C)C)C(=O)N3)C(=O)N[C@@H](Cc1c[nH]cn1)C(=O)N[C@@H](CC(N)=O)C(=O)N[C@@H](Cc1c[nH]cn1)C(=O)N2 [Y25L] (H-GFGCNGPWDEDDMQCHNHCKSIKGLKGGYCAKGGFVCKCY-OH; disulfide 4-30, 15-37, 19-39 (inferred); N-terminus and C-terminus assumed) | 3,13 μg/mL |  |  |
| CC[C@H](C)[C@@H]1NC(=O)[C@H](CO)NC(=O)[C@H](CCCCN)NC(=O)[C@@H]2CSSC[C@@H](C(=O)N[C@@H](Cc3ccc(O)cc3)C(=O)O)NC(=O)[C@H](CCCCN)NC(=O)[C@@H]3CSSC[C@H](NC(=O)[C@H](CCC(N)=O)NC(=O)[C@H](CCSC)NC(=O)[C@H](CC(=O)O)NC(=O)[C@H](CC(=O)O)NC(=O)[C@H](CCC(=O)O)NC(=O)[C@H](CC(=O)O)NC(=O)[C@H](Cc4c[nH]c5ccccc45)NC(=O)[C@@H]4CCCN4C(=O)CNC(=O)[C@H](CC(N)=O)NC(=O)[C@@H](NC(=O)CNC(=O)[C@H](Cc4ccccc4)NC(=O)CN)CSSC[C@H](NC(=O)[C@H](Cc4ccc(O)cc4)NC(=O)CNC(=O)CNC(=O)[C@H](CCCCN)NC(=O)[C@H](Cc4ccc(O)cc4)NC(=O)CNC(=O)[C@H](C)NC1=O)C(=O)N[C@@H](C)C(=O)N[C@@H](CCCCN)C(=O)NCC(=O)NCC(=O)N[C@@H](Cc1ccccc1)C(=O)N[C@@H](C(C)C)C(=O)N3)C(=O)N[C@@H](Cc1c[nH]cn1)C(=O)N[C@@H](CC(N)=O)C(=O)N[C@@H](Cc1c[nH]cn1)C(=O)N2 [K23A] (H-GFGCNGPWDEDDMQCHNHCKSIAGYKGGYCAKGGFVCKCY-OH; disulfide 4-30, 15-37, 19-39 (inferred); N-terminus and C-terminus assumed) |  | fivefold to tenfold | 6.25 µg/mL (≈ 1.44 µM) |

Source: article PMC11222147, “Host defence peptide plectasin targets bacterial cell wall precursor lipid II by a calcium-sensitive supramolecular mechanism” (Nature Microbiology, 2024)
